Patent US9821173B2, “Anti-cancer agents and methods of use” (Case Western Reserve University, priority 2013, dated 2017)
Where “and” joins values, the source holds several entries; their conditions need not be identical. Identical values can stand only once.

Tests used:
γH2AX foci in HeLa cells = conditions: 2 Gy IR, compound 4 7 μM; for number of γH2AX foci 30 minutes post IR exposure: compound 3 4 μM
Experimental: HeLa cells were plated at a density of 40,000 cells/ml in 24-well glass bottom plate for 24 hr. After this time, cells were treated with Au(I)indole compounds at desired concentration for an additional 24 hr. The cells were irradiated at 2 Gys. Cells were fixed with 4% paraformaldehyde for 15 min at 37° C. at time points corresponding to 0.5, 1, 2, and 4 hrs. Cells were washed with 1×PBS and permeabilized in 0.2% Triton X-100 for 15 min at 37° C. […] Mouse monoclonal anti-phospho-histone H2AX antibody (Millipore) was applied (1:500 dilution) to each well for one hour. After washing several times with blocking buffer, a 1:500 dilution of goat anti-mouse secondary antibody conjugated with Alexa 647 (Invitrogen) was added for 1 hr. The wells were then washed several times, and the number of γH2AX foci per nuclei was measured using an iCyte laser scanning cytometer with a red long pass filter (650 nm). To collect accurate data, a threshold was set to minimize noise produced by unrelated events using iNovator software (version 3.4.2.52). Each well was scanned using a 40× magnification with 0.25 μm× step and a field size of 250×186 μm (1000×768 pixels). Data were plotted as the percentage of cells as a function of foci number. The resulting histogram was fit to the equation for a Gaussian distribution (Equation 2). Y=1/(2πσ^2)^1/2e^−[(χ−m)2/2σ2] (2)
where Y is the percentage of cells, μ is the mean, and σ is the variance used to define the width of the mean.

FLT2 = test: Kinase inhibition screening (Luceome); format: biochemical, human; conditions: 10 μM
Description: (§1) It is well established that dysfunctional and unregulated kinase activity plays significant roles in cancer initiation and progression. […] Inspection of the data provides several interesting observations. […] These inhibitory effects at this concentration are consistent with their measured IC50 values that are also in the μM range (Table 1). In addition, several kinases display overlapping inhibitory responses to both gold(I) compounds. Many of these are of particular interest since they are involved in cancer initiation and/or progression. For example, the Aurora kinase family members, Aurora A and Aurora B, as well as the MARK2 and MARK3 kinases function during mitosis to regulate cell division. These kinases are important therapeutic targets as their activities are often deregulated in many types of cancers. Other kinases such as RPS6KA3 and MLK3 are involved in the MAP kinase and JNK pathways which are also important in cancer progression.

HeLa cells [1] = test: Cell cycle analyses (PI staining, flow cytometry); format: cell-based; conditions: for G1 (%) / G2/M (%) / S-Phase (%): 50 μM, 24 hours post-treatment
Experimental: Cells were plated at a density of 200,000/ml. Au(I)-Indole analogs were then added in a dose-dependent manner for time periods varying from 1 to 3 days. Cells were treated with 0.25% trypsin and harvested by centrifugation. The supernatant was removed and then washed with PBS. After aspiration of PBS, 500 μl of 70% ethanol was added and cells were incubated on ice for 15 minutes followed by centrifugation and the removal of ethanol. One ml of PI staining solution [(10 ml of 0.1 Triton X-100/PBS, 0.4 ml of 500 μg/ml of PI, and 2 mg/ml of DNase-free RNase)] was added to the cell suspension, placed on ice for 30 minutes, and then analyzed using a Beckman Coulter XL flow cytometer with a red filter.
We next analyzed the effects of compounds 3 and 4 on cell-cycle progression using PI staining to measure cellular DNA content. HeLa cells were treated with DMSO.

HeLa cells [2] = test: Fluorescence microscopy, propidium iodide uptake and annexin V staining; format: cell-based; conditions: 50 μM; for annexin V staining: 12 hours; for PI staining / uptake: 24 hours
Experimental: Cells were plated at 75,000-125,000/ml for 24 hours. […] Alexa fluro 488 Annexin V and Propidium Iodide were added to each well and images were taken on Leica CTR 6500 microscope using green (480/40 nm) and red (560/40 nm) excitation band pass filters.

HeLa = test: Cell proliferation assay (cell-titer blue); format: cell-based; conditions: cell viability, cell-titer blue, up to 48 hours
Experimental: (§2) HeLa, MCF-7, HCT-116, and CEM-C7 were obtained from the American Type Culture Collection (Manassas, Va., USA). All adherent cell lines were maintained in Dulbecco's modified Eagle's medium (Mediatech) with 100 U/ml penicillin (Invitrogen), 100 μg/ml streptomycin (Invitrogen), 0.25 μg/ml amphotericin B (Invitrogen), and 10% fetal bovine serum (USA Scientific) and incubated at 37° C. with 5% CO2. CEM cells were maintained in RPMI-1640 media supplemented with 100 U/ml penicillin, 100 μg/ml streptomycin, 0.25 μg/ml amphotericin B, and 10% fetal bovine serum and incubated at 37° C. with […].
(§3) Cells were plated at a density of 7,000-13,000/well in 200 μl of media overnight in a 96-well plate. Each (phosphine)gold(I)-indole was added to wells in a dose-dependent manner (0.01-100 μM). Cells were treated with compounds for variable time periods (8-48 hours). With adherent cell lines, medium was removed from the wells and then 100 μl of fresh medium was added into each well followed by the addition of 20 μl of cell titer-blue reagent (Promega). Cells were incubated with reagent for 1-4 hrs and the optical density of samples was read at 560 nm using a microplate reader. The background absorbance of dye with media was subtracted from each sample. Cell viability was then normalized against cells treated with DMSO. IC50 values were obtained using a fit of the data to Equation 1: Y=100%/[1+(IC50/Inhibitor)] (1)
(§4) where y is the fraction of viable cells, IC50 is the concentration of inhibitor that inhibits 50% cell growth, and Inhibitor is the concentration of compound tested.
(§5) The cellular effects of these (phosphine)gold(I) indoles were tested against several cancer cell lines including HeLa (cervical cancer), MCF-7 (breast cancer), HCT-116 (colon cancer), and CEM-C7 (leukemia). The dose-dependency of each modified indole on cell viability was assessed using a cell-titer blue assay as previously described. In these experiments, cells were exposed to variable concentrations of each (phosphine)gold(I) indole (0.01-100 μM) for up to 48 hours and then assessed for viability.

MCF-7 = test: Cell proliferation assay (cell-titer blue); format: cell-based; conditions: cell viability, up to 48 hours
Experimental: as §2, §3, §4, §5

HCT-116 = test: Cell proliferation assay (cell-titer blue); format: cell-based; conditions: cell viability, up to 48 hours, read-out: IC50 HCT116
Experimental: as §2, §3, §4, §5

MARK2 = target: T1, MARK2 (Homo sapiens, UniProt Q7KZI7); test: Kinase inhibition screening (Luceome); format: biochemical; conditions: 10 μM
T1 construct: purchased Luceome Biotechnologies (Tucson, Ariz.)
T1 sequence (Q7KZI7 whole entry): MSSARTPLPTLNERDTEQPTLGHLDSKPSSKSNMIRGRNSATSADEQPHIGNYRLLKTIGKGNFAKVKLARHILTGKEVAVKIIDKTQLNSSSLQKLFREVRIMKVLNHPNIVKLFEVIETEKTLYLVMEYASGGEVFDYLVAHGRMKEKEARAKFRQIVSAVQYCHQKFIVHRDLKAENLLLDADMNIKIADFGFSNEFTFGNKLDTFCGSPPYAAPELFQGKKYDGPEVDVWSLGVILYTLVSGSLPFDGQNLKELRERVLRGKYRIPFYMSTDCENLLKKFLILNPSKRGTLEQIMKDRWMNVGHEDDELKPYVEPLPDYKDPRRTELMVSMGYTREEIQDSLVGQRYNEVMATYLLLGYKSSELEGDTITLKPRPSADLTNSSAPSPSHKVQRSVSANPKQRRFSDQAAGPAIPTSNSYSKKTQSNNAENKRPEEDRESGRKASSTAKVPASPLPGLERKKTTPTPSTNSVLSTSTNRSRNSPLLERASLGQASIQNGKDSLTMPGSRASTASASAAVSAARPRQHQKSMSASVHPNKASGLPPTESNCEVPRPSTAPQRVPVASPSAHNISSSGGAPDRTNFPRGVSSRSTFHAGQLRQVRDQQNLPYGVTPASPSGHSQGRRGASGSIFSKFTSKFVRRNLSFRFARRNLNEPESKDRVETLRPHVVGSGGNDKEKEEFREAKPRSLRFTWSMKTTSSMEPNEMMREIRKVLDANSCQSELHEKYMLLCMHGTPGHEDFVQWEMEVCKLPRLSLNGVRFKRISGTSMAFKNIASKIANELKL
Description: as §1

FYN = target: T2, FYN (Homo sapiens, UniProt P06241); test: Kinase inhibition screening (Luceome); format: biochemical; conditions: 10 μM
T2 construct: purchased Luceome Biotechnologies (Tucson, Ariz.)
Description: as §1

LYN = target: T3, LYN (Homo sapiens, UniProt P07948); test: Kinase inhibition screening (Luceome); format: biochemical; conditions: 10 μM
T3 construct: purchased Luceome Biotechnologies (Tucson, Ariz.)
T3 sequence (P07948 whole entry): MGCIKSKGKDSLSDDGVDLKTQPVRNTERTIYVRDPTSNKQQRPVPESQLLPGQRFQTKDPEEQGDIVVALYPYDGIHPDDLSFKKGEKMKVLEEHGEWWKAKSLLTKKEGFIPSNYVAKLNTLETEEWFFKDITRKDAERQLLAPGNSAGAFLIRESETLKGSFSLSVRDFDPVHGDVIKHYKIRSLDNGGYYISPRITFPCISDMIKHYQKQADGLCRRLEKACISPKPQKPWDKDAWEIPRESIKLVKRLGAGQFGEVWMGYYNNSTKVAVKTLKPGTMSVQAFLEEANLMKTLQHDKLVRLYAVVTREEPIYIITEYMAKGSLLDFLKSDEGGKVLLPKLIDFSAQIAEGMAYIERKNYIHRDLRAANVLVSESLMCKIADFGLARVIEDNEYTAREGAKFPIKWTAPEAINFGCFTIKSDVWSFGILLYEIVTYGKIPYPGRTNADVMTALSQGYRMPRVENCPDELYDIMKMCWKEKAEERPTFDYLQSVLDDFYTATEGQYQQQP
Description: as §1

FLT3 = target: T4, FLT3 (Homo sapiens, UniProt P36888); test: Kinase inhibition screening (Luceome); format: biochemical; conditions: 10 μM
T4 construct: purchased Luceome Biotechnologies (Tucson, Ariz.)
T4 sequence (P36888 27-993): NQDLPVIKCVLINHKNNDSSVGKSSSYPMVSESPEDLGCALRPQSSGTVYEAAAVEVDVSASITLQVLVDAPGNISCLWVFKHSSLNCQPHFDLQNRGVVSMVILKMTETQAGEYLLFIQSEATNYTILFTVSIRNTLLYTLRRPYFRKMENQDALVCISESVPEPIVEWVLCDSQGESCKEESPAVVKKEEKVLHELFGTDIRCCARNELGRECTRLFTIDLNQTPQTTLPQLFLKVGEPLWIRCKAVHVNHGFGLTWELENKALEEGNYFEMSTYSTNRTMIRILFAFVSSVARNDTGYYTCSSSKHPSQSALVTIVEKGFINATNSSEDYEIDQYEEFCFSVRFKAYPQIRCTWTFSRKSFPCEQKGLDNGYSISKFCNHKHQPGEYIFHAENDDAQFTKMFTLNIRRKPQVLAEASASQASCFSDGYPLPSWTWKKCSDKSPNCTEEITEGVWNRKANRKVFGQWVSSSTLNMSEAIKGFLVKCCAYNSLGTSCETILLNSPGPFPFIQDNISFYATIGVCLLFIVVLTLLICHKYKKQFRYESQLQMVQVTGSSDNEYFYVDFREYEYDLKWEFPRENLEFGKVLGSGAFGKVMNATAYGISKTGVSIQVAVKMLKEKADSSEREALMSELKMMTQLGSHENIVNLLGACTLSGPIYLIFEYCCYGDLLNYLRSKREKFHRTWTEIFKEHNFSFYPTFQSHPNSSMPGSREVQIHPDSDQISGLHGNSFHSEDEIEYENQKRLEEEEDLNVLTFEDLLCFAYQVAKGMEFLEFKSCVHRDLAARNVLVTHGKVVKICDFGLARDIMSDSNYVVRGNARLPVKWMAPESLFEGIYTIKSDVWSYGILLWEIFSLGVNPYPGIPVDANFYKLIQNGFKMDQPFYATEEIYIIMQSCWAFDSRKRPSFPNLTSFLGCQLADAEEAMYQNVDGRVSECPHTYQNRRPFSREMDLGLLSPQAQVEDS
Description: as §1

AKT1 = target: T5, AKT1 (Homo sapiens, UniProt P31749); test: Kinase inhibition screening (Luceome); format: biochemical; conditions: 10 μM
T5 construct: purchased Luceome Biotechnologies (Tucson, Ariz.)
T5 sequence (P31749 whole entry): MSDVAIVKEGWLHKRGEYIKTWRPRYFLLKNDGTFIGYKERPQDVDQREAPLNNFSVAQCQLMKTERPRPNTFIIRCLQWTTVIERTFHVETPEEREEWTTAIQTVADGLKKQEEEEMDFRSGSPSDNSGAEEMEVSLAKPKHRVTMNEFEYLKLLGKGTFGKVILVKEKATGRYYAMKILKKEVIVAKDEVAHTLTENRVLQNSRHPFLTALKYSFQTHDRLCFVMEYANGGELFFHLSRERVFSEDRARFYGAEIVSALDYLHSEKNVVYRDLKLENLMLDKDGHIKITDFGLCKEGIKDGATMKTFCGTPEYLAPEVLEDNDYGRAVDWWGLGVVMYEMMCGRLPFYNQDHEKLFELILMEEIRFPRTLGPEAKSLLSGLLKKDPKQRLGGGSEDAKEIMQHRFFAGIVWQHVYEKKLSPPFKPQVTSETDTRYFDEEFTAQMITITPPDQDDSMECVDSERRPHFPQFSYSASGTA
Description: as §1

CAMK1 = target: T6, CAMK1 (Homo sapiens, UniProt Q14012); test: Kinase inhibition screening (Luceome); format: biochemical; conditions: 10 μM
T6 construct: purchased Luceome Biotechnologies (Tucson, Ariz.)
T6 sequence (Q14012 whole entry): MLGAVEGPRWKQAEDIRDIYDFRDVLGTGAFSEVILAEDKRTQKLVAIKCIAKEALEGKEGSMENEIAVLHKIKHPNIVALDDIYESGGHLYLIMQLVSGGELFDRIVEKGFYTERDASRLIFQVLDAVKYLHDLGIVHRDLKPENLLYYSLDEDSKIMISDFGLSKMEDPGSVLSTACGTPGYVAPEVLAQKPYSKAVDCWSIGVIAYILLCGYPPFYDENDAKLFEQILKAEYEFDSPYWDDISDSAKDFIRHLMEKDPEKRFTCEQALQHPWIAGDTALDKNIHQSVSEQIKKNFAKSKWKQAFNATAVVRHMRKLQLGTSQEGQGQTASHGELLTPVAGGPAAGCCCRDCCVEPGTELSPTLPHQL
Description: as §1

AMPK-α1 = target: T7, AMPK-α1 (Homo sapiens, UniProt Q13131); test: Kinase inhibition screening (Luceome); format: biochemical; conditions: 10 μM
T7 construct: purchased Luceome Biotechnologies (Tucson, Ariz.)
T7 sequence (Q13131 whole entry): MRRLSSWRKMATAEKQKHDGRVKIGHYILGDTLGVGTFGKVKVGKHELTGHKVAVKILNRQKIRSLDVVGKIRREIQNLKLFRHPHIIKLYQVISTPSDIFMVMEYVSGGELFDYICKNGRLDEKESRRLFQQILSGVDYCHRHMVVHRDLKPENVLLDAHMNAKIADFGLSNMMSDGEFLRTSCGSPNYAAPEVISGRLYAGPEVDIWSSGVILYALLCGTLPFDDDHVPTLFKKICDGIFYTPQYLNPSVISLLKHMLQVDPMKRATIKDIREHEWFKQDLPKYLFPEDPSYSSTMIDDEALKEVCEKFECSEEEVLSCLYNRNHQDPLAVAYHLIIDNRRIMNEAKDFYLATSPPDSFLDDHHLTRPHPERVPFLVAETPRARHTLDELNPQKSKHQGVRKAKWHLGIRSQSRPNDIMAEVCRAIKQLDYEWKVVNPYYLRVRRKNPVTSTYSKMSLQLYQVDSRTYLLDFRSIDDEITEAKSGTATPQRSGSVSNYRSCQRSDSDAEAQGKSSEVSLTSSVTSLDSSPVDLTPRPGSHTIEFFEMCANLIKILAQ
Description: as §1

IGF1R = target: T8, IGF1R (Homo sapiens, UniProt P08069); test: Kinase inhibition screening (Luceome); format: biochemical; conditions: 10 μM
T8 construct: purchased Luceome Biotechnologies (Tucson, Ariz.)
Description: as §1

GSK3α = target: T9, GSK3α (Homo sapiens, UniProt P49840); test: Kinase inhibition screening (Luceome); format: biochemical; conditions: 10 μM
T9 construct: purchased Luceome Biotechnologies (Tucson, Ariz.)
T9 sequence (P49840 whole entry): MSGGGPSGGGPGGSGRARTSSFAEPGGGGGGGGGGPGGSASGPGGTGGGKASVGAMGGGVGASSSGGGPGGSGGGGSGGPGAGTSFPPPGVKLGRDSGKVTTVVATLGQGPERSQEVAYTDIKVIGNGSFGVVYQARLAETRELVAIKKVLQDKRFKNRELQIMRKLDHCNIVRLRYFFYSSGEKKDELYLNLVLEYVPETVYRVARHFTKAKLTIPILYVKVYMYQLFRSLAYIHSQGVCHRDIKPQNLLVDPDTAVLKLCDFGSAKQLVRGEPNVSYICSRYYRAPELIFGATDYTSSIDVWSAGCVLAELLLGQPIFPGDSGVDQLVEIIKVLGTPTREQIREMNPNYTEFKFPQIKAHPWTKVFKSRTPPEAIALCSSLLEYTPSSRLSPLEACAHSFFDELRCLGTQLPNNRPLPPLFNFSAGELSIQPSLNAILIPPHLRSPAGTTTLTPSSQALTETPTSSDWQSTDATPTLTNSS
Description: as §1

MARK1 = target: T10, MARK1 (Homo sapiens, UniProt Q9P0L2); test: Kinase inhibition screening (Luceome); format: biochemical; conditions: 10 μM
T10 construct: purchased Luceome Biotechnologies (Tucson, Ariz.)
Description: as §1

rat liver TrxR = rat liver TrxR (Rattus norvegicus, UniProt O89049); test: Thioredoxin reductase inhibition (DTNB assay); conditions: 40 μM compound, 600 nM TrxR, 25° C.
Chain of rat liver TrxR (O89049 whole entry): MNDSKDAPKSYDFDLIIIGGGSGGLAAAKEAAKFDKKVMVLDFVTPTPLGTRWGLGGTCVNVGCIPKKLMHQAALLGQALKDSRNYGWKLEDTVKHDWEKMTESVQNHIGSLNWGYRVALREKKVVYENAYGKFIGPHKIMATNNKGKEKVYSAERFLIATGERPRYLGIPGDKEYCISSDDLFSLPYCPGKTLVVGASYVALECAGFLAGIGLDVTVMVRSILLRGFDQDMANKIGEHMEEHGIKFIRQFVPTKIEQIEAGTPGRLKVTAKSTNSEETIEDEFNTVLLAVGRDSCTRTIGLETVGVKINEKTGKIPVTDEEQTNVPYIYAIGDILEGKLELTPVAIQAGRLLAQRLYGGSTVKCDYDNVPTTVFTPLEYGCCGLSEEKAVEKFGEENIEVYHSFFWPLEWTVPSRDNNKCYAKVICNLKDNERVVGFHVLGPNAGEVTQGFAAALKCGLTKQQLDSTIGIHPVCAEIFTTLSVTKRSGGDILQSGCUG

| Compound | number of γH2AX foci 30 minutes post IR exposure (γH2AX foci in HeLa cells) | G1 (%) (HeLa cells [1]) | G2/M (%) (HeLa cells [1]) | S-Phase (%) (HeLa cells [1]) | annexin V staining (HeLa cells [2]) | PI staining / uptake (HeLa cells [2]) | IC50 (HeLa) [µM] | IC50 (MCF-7) [µM] | IC50 (HCT-116) [µM] | % Inhibition AKT1 (AKT1) [%] | % Inhibition CAMK1 (CAMK1) [%] | % Inhibition AMPK-α1 (AMPK-α1) [%] | further results |
| --- | --- | --- | --- | --- | --- | --- | --- | --- | --- | --- | --- | --- | --- |
| CC(C)(C)OC(=O)n1ccc2c[c]([Au-][P+](C3CCCCC3)(C3CCCCC3)C3CCCCC3)ccc21 [Compound 4, 5-{Tricyclohexylphosphine aurate(I)}-tert-butyl1H-indole-1-carboxylate] | increase in the number of γH2AX foci | 60.3+/−3.2% and 60.3 +/− 0.8% | 11.4 +/− 4.9% | 28.3 +/− 1.3% | induce early stage apoptosis | more intense PI staining | 16.2 | 34.4 | 22.8 | 0 | 0 | 0 | γH2AX foci 4 hours after IR exposure (γH2AX foci in HeLa cells): a significant number of γH2AX foci persist; % Inhibition FLT2 (FLT2): 0%; % Inhibition MARK2 (MARK2): 26.2%; % Inhibition FYN (FYN): 1.2%; % Inhibition LYN (LYN): 0%; % Inhibition FLT3 (FLT3): 0%; % Inhibition IGF1R (IGF1R): 4.7%; % Inhibition GSK3α (GSK3α): 5.8%; % Inhibition MARK1 (MARK1): 11.9% |
| CC(C)(C)OC(=O)n1ccc2c[c]([Au-][P+](c3ccccc3)(c3ccccc3)c3ccccc3)ccc21 [Compound 3, 5-{Triphenylphosphine aurate(I)}-tert-butyl1H-indole-1-carboxylate] | lower numbers of γH2AX foci | 45.4 +/− 2.1% | 13.0 +/− 2.1% | 41.6 +/− 0.1% | induce early stage apoptosis | significant PI uptake is not observed | 2.5 | 16.2 | 11.5 | 0 | 0 | 0 | inhibition of TrxR activity (rat liver TrxR): 17%; alterations in cell-cycle progression (HeLa cells [1]; over a 24 hour period): does not cause any significant alterations in cell-cycle progression |
